In patent US4386077A (Made Italiana s.r.l, priority 1981, dated 1983):

Tests used:
[1] = Cumulative urinary elimination in Cynomolgus monkeys; format: in vivo, Cynomolgus monkey
Protocol: (§1) Blood was collected at the following time: 0 (basal values) and 5, 10, 15, 30, 60 minutes, 2, 4, 7, 24 and 30 hours after the administration. From the end of the curves serum concentration/time, it was possible to calculate the constant of the apparent elimination speed from the organism as well as the relative half-life. These values were utilized in calculating the AUC T30 hours →T.infin. for the total of the curves concentration/time in the same animal. The AUC To →T30 hrs was calculated by means of the trapezium methods. […] For each dosage, a randomized cross-over procedure was used. Seriated blood samples were collected until 30 hours after each administration. From the single curves concentration/time it was possible to calculate the AUC To →T30 hrs. After each administration, including the intravenous one, urine was collected at the following time intervals: 0-24 hours, 24-48 hours and 48-72 hours.

[2] = oral, compound as such; cited from earlier work
[3] = format: in vivo, rat; conditions: rats, oral (gastric gavage), 50 mg CDP-choline, 24 hours
Protocol: The labelled carbon atom is that of the methyl group of the choline moiety.
At different time intervals a certain amount of blood is collected and, after 24 hours from the beginning of the experiment, the animals are sacrificed. The amount of radioactivity is measured in predetermined serum volumes or weight of the various organs or tissues.
The values are expressed as c.p.m.x 10^-3 /gram of organ or tissue.

[4] = Serum kinetics and absolute bioavailability of ^14 C-labelled CDP-choline and "ASONIC" after i.v. and oral administration in Cynomolgus monkeys; format: in vivo, Cynomolgus monkey; conditions: average and S.D. of 2 monkeys
Protocol: as §1, with “From” for “Blood was collected at the following time: 0 (basal values) and 5, 10, 15, 30, 60 minutes, 2, 4, 7, 24 and 30 hours after the administration. From”

C[N+](C)(C)CCOP(=O)(O)OP(=O)([O-])OC[C@H]1O[C@@H](n2ccc(N)nc2=O)[C@H](O)[C@@H]1O [CDP-choline, cytidine diphosphocholine]
Cumulative urinary elimination ([1]; average and S.D. of 2 monkeys, 25 mg/kg i.v., 0-24 hr): 50.65 ± 2.33 % OF THE ADMINISTERED DOSE | Cumulative urinary elimination ([1]; average and S.D. of 2 monkeys, 25 mg/kg i.v., 0-72 hr): 53.5 ± 3.25 % OF THE ADMINISTERED DOSE | Cumulative urinary elimination ([1]; average and S.D. of 2 monkeys, 25 mg/kg i.v., 24-48 hr): 2.5 ± 0.99 % OF THE ADMINISTERED DOSE | Cumulative urinary elimination ([1]; average and S.D. of 2 monkeys, 25 mg/kg i.v., 48-72 hr): 0.35 ± 0.07 % OF THE ADMINISTERED DOSE | Cumulative urinary elimination ([1]; average and S.D. of 2 monkeys, 200 mg/kg per os, 0-24 hr): 42.75 ± 6.15 % OF THE ADMINISTERED DOSE | Cumulative urinary elimination ([1]; average and S.D. of 2 monkeys, 200 mg/kg per os, 0-72 hr): 47.5 ± 3.11 % OF THE ADMINISTERED DOSE | Cumulative urinary elimination ([1]; average and S.D. of 2 monkeys, 200 mg/kg per os, 24-48 hr): 4.2 ± 2.83 % OF THE ADMINISTERED DOSE | Cumulative urinary elimination ([1]; average and S.D. of 2 monkeys, 200 mg/kg per os, 48-72 hr): 0.55 ± 0.21 % OF THE ADMINISTERED DOSE | Cumulative urinary elimination ([1]; average and S.D. of 2 monkeys, 400 mg/kg per os, 0-24 hr): 31.3 ± 9.3 % OF THE ADMINISTERED DOSE | Cumulative urinary elimination ([1]; average and S.D. of 2 monkeys, 400 mg/kg per os, 0-72 hr): 37.65 ± 8.98 % OF THE ADMINISTERED DOSE | Cumulative urinary elimination ([1]; average and S.D. of 2 monkeys, 400 mg/kg per os, 24-48 hr): 5.6 ± 0.56 % OF THE ADMINISTERED DOSE | Cumulative urinary elimination ([1]; average and S.D. of 2 monkeys, 400 mg/kg per os, 48-72 hr): 0.75 ± 0.21 % OF THE ADMINISTERED DOSE | Cumulative urinary elimination ([1]; monkey no. 1, 25 mg/kg i.v., 0-24 hr): 49 % OF THE ADMINISTERED DOSE | Cumulative urinary elimination ([1]; monkey no. 1, 25 mg/kg i.v., 0-72 hr): 51.2 % OF THE ADMINISTERED DOSE | Cumulative urinary elimination ([1]; monkey no. 1, 25 mg/kg i.v., 24-48 hr): 1.8 % OF THE ADMINISTERED DOSE | Cumulative urinary elimination ([1]; monkey no. 1, 25 mg/kg i.v., 48-72 hr): 0.4 % OF THE ADMINISTERED DOSE | Cumulative urinary elimination ([1]; monkey no. 1, 200 mg/kg per os, 0-24 hr): 38.4 % OF THE ADMINISTERED DOSE | Cumulative urinary elimination ([1]; monkey no. 1, 200 mg/kg per os, 0-72 hr): 45.3 % OF THE ADMINISTERED DOSE | Cumulative urinary elimination ([1]; monkey no. 1, 200 mg/kg per os, 24-48 hr): 6.2 % OF THE ADMINISTERED DOSE | Cumulative urinary elimination ([1]; monkey no. 1, 200 mg/kg per os, 48-72 hr): 0.7 % OF THE ADMINISTERED DOSE | Cumulative urinary elimination ([1]; monkey no. 1, 400 mg/kg per os, 0-24 hr): 24.7 % OF THE ADMINISTERED DOSE | Cumulative urinary elimination ([1]; monkey no. 1, 400 mg/kg per os, 0-72 hr): 31.3 % OF THE ADMINISTERED DOSE | Cumulative urinary elimination ([1]; monkey no. 1, 400 mg/kg per os, 24-48 hr): 6.0 % OF THE ADMINISTERED DOSE | Cumulative urinary elimination ([1]; monkey no. 1, 400 mg/kg per os, 48-72 hr): 0.6 % OF THE ADMINISTERED DOSE | Cumulative urinary elimination ([1]; monkey no. 2, 25 mg/kg i.v., 0-24 hr): 52.3 % OF THE ADMINISTERED DOSE | Cumulative urinary elimination ([1]; monkey no. 2, 25 mg/kg i.v., 0-72 hr): 55.8 % OF THE ADMINISTERED DOSE | Cumulative urinary elimination ([1]; monkey no. 2, 25 mg/kg i.v., 24-48 hr): 3.2 % OF THE ADMINISTERED DOSE | Cumulative urinary elimination ([1]; monkey no. 2, 25 mg/kg i.v., 48-72 hr): 0.3 % OF THE ADMINISTERED DOSE | Cumulative urinary elimination ([1]; monkey no. 2, 200 mg/kg per os, 0-24 hr): 47.1 % OF THE ADMINISTERED DOSE | Cumulative urinary elimination ([1]; monkey no. 2, 200 mg/kg per os, 0-72 hr): 49.7 % OF THE ADMINISTERED DOSE | Cumulative urinary elimination ([1]; monkey no. 2, 200 mg/kg per os, 24-48 hr): 2.2 % OF THE ADMINISTERED DOSE | Cumulative urinary elimination ([1]; monkey no. 2, 200 mg/kg per os, 48-72 hr): 0.4 % OF THE ADMINISTERED DOSE | Cumulative urinary elimination ([1]; monkey no. 2, 400 mg/kg per os, 0-24 hr): 37.9 % OF THE ADMINISTERED DOSE | Cumulative urinary elimination ([1]; monkey no. 2, 400 mg/kg per os, 0-72 hr): 44.0 % OF THE ADMINISTERED DOSE | Cumulative urinary elimination ([1]; monkey no. 2, 400 mg/kg per os, 24-48 hr): 5.2 % OF THE ADMINISTERED DOSE | Cumulative urinary elimination ([1]; monkey no. 2, 400 mg/kg per os, 48-72 hr): 0.9 % OF THE ADMINISTERED DOSE | Absorbability [2]: poor absorbability | Radioactivity value in brain [3]: 1.55 c.p.m.x 10^-3 /gram of organ o | Radioactivity value in kidney [3]: 46.3 c.p.m.x 10^-3 /gram of organ o | Radioactivity value in liver [3]: 65.4 c.p.m.x 10^-3 /gram of organ o | Radioactivity value in muscle [3]: 3.1 c.p.m.x 10^-3 /gram of organ o | Plasmatic concentration ([4]; 25 mg/kg i.v., 5'): 10561 ± 2620 DPM/ml serum | Plasmatic concentration ([4]; 25 mg/kg i.v., 15'): 4088 ± 1299 DPM/ml serum | Plasmatic concentration ([4]; 25 mg/kg i.v., 30'): 2846 ± 877 DPM/ml serum | Plasmatic concentration ([4]; 25 mg/kg i.v., 60'): 2127 ± 704 DPM/ml serum | Plasmatic concentration ([4]; 25 mg/kg i.v., 2 hr): 2397 ± 329 DPM/ml serum | Plasmatic concentration ([4]; 25 mg/kg i.v., 4 hr): 3064 ± 431 DPM/ml serum | Plasmatic concentration ([4]; 25 mg/kg i.v., 7 hr): 3566 ± 631 DPM/ml serum | Plasmatic concentration ([4]; 25 mg/kg i.v., 24 hr): 2035 ± 315 DPM/ml serum | Plasmatic concentration ([4]; 25 mg/kg i.v., 30 hr): 1947 ± 280 DPM/ml serum | Plasmatic concentration ([4]; 200 mg/kg per os, 15'): 61 DPM/ml serum | Plasmatic concentration ([4]; 200 mg/kg per os, 30'): 45 DPM/ml serum | Plasmatic concentration ([4]; 200 mg/kg per os, 45'): 56 ± 4 DPM/ml serum | Plasmatic concentration ([4]; 200 mg/kg per os, 60'): 91 ± 4.2 DPM/ml serum | Plasmatic concentration ([4]; 200 mg/kg per os, 4 hr): 154 ± 26 DPM/ml serum | Plasmatic concentration ([4]; 200 mg/kg per os, 7 hr): 774 ± 110 DPM/ml serum | Plasmatic concentration ([4]; 200 mg/kg per os, 9 hr): 669 ± 105 DPM/ml serum | Plasmatic concentration ([4]; 200 mg/kg per os, 24 hr): 378 ± 55 DPM/ml serum | Plasmatic concentration ([4]; 200 mg/kg per os, 30 hr): 344 ± 58 DPM/ml serum | Plasmatic concentration ([4]; 400 mg/kg per os, 30'): 35 DPM/ml serum | Plasmatic concentration ([4]; 400 mg/kg per os, 60'): 61 ± 12 DPM/ml serum | Plasmatic concentration ([4]; 400 mg/kg per os, 90'): 40 ± 16 DPM/ml serum | Plasmatic concentration ([4]; 400 mg/kg per os, 2 hr): 78 ± 4.2 DPM/ml serum | Plasmatic concentration ([4]; 400 mg/kg per os, 3 hr): 181 ± 9.2 DPM/ml serum
